From patent publication US7785587B2, “Therapeutic methods for muscular or neuromuscular disorders” (Wyeth, priority 2003, dated 2010)

How the values were obtained:
Format in all cases: in vivo, mouse
C57BL/10ScSn-mdx/j mice [1] = test: Gastrocnemius and quadriceps weight in mdx mice treated 4 weeks with prednisone with or without JA-16 (Example 2); conditions: end of 4-week study
Method: Male C57BL/10ScSn-mdx/j and C57BL/10 (Jackson Laboratory, Bar Harbor, Me.). Mouse monoclonal anti-GDF-8 antibody JA-16, prednisone (P-9901, Sigma), or vehicle (peanut oil) was injected starting at age 5-7 weeks for 4 weeks. Mice were intraperitoneally (IP) injected with JA-16 at a dose of 60 mg/kg per week (double dosing at first week), or subcutaneously (SC) injected with prednisone at 2 mg/kg, 3 times a week.
(§1) At the end of the study, mice were sacrificed and muscle mass was assessed by dissecting and weighing the gastrocnemius and quadriceps. To confirm biological activity of prednisone, sera from a separate cohort of mice were collected and analyzed for IL6 and IL1β (Ani Lyctics, Inc., Gaithersburg, Md.).

IL6 = test: Serum IL6 in mice treated with prednisone; conditions: separate cohort of mice treated with prednisone
Method: as §1

C57BL/10ScSn-mdx/j mice [2] = test: Total body weight of mdx mice treated 4 weeks with prednisone with or without JA-16 (Example 2); conditions: JA-16 60 mg/kg per week IP, prednisone 2 mg/kg SC 3 times a week
Method: (§2) Male C57BL/10ScSn-mdx/j and C57BL/10 (Jackson Laboratory, Bar Harbor, Me.). Mouse monoclonal anti-GDF-8 antibody JA-16, prednisone (P-9901, Sigma), or vehicle (peanut oil) was injected starting at age 5-7 weeks for 4 weeks. Mice were intraperitoneally (IP) injected with JA-16 at a dose of 60 mg/kg per week (double dosing at first week), or subcutaneously (SC) injected with prednisone at 2 mg/kg, 3 times a week. The body weight and grip strength were monitored before, during and after treatment. Results are shown in Table 3 and Table 4, respectively.

IL1β = test: Serum IL1β in mice treated with prednisone; conditions: separate cohort of mice treated with prednisone
Method: as §1

C57BL/10ScSn-mdx/j mice [3] = test: Grip strength of mdx mice treated 4 weeks with prednisone with or without JA-16 (Example 2); conditions: JA-16 60 mg/kg per week IP, prednisone 2 mg/kg SC 3 times a week
Method: as §2

Structure (SMILES): C[C@]12C=CC(=O)C=C1CC[C@@H]1[C@@H]2C(=O)C[C@@]2(C)[C@H]1CC[C@]2(O)C(=O)CO [Prednisone, prednisone]
- Muscle weight (average ± SEM), Gastroc (C57BL/10ScSn-mdx/j mice [1]): 0.287 ± 0.023 g
- Muscle weight (average ± SEM), Quad (C57BL/10ScSn-mdx/j mice [1]): 0.417 ± 0.029 g
- IL6 in sera (IL6): reduced
- Total body weight (average ± SEM) (C57BL/10ScSn-mdx/j mice [2]; week 0 of trial): 17.6 ± 1.8 g
- Total body weight (average ± SEM) (C57BL/10ScSn-mdx/j mice [2]; week 1 of trial): 20.9 ± 1.8 g
- Total body weight (average ± SEM) (C57BL/10ScSn-mdx/j mice [2]; week 2 of trial): 24.2 ± 1.6 g
- Total body weight (average ± SEM) (C57BL/10ScSn-mdx/j mice [2]; week 3 of trial): 24.7 ± 1.5 g
- Total body weight (average ± SEM) (C57BL/10ScSn-mdx/j mice [2]; week 4 of trial): 25.9 ± 1.6 g
- IL1β in sera (IL1β): reduced
- Grip strength (average ± SEM) (C57BL/10ScSn-mdx/j mice [3]; week 0 of trial): 0.144 ± 0.010 lb
- Grip strength (average ± SEM) (C57BL/10ScSn-mdx/j mice [3]; week 3 of trial): 0.177 ± 0.006 lb
- Grip strength (average ± SEM) (C57BL/10ScSn-mdx/j mice [3]; week 4 of trial): 0.213 ± 0.011 lb
